On the set-up of data set [1]: method as in PMID 21337354. The conditions noted are these: rodents; cited from earlier work.
In data set [2] the test system is C57Bl/6 mice. Nature of the data set: Mouse 24 h novel object recognition. Format: in vivo. How it is done: The procedure followed a 3 day protocol. On day 1 (habituation) individual mice were habituated to the testing chamber (a white PVC box 48 cm long x 38 cm wide x 20 cm high with brown linoleum flooring) for 15 min then returned to their home cage. On day 2 (training) individual mice were returned to the testing chamber containing 2 identical objects and allowed to explore. The training session lasted for up to 15 min or until the mouse explored the objects for a total of 60 s. A maximal trial duration of 15 min was used to accommodate mice that are slower to initiate exploration. On day 3 (testing) individual mice were returned to the testing chamber 24 h later containing 1 familiar object encountered in the previous training session and one novel object. The testing session lasted up to 10 min or until the mouse explored the objects for a total of 60 s. The objects used for these studies were made of duplex legos approximately 3 inches high x 1 inch wide; one object was a multicolored rectangle and the second object was a solid color rectangle with a short arm attached. The location of the objects was counterbalanced between animals but was consistent within animals so that only the object itself was novel on the test session. The familiar object used during the test session was the same object used during training and all objects were thoroughly cleaned between sessions and between subjects. Animal behavior was video recorded during both training and testing and the amount of time spent exploring the objects determined using Cleversys software. Object exploration was only scored when the animal’s nose was within 1 cm of the object. […] The vehicle was chosen for sc dosing to ensure that BMS-933043 was dosed as a solution and not a suspension. […] For each subject the % discrimination index (DI) was calculated for both the training and test session as follows: %DI training = (time exploring object 1—time exploring object 2)/(total time exploring object 1 + object 2) X 100; %DI testing = (time exploring novel object—time exploring familiar object)/(total time exploring novel + familiar object) X 100.

Data set [3] can be described thus: Plasma and brain concentrations after dosing. The data set is classed as in vivo, mouse. To be noted: for Kp: mouse, brain/plasma. The protocol: Occupancy determinations were made either on completion of behavioral testing or in satellite groups of animals dosed in parallel with behavioral testing. At specified time points after dosing, the forebrain (for occupancy), the remaining hindbrain (for brain drug exposure) and plasma were collected, frozen in chilled isopentane and stored at -80°C until assayed. […] Homogenized tissue aliquots were frozen immediately and stored at -80°C. […] Non-specific binding was defined by adding 25 μM MLA to wells containing tissues from vehicle-treated animals. […] The filters were washed with ice-cold assay buffer, punched into a clear plate and 200 μl scintillation fluid added per well. Bound radioactivity was measured using a Wallac Microbeta liquid scintillation counter. Specific binding was calculated by subtracting the value of the non-specific binding from that of the total binding in each sample. The percent occupancy was calculated as [1 –(specific binding in drug treated mice/specific binding in vehicle treated mice)] x 100.
In brief, 50 μL of the plasma sample was extracted by protein precipitation with 150 μL acetonitrile containing an internal standard and 5 μL of supernatant injected into the LC-MS/MS system. Analytes were separated by reversed phase chromatography and detection of each analyte was achieved through selected reaction monitoring mode of mass spectrometry.

For data set [4], the target named is HEK293/Human α7 nAChR (Homo sapiens, UniProt P36544). Nature of the data set: Ca2+ flux (FLIPR) agonist assay. The data set is classed as cell-based.
Description: Functional activity was examined using Ca^2+-sensitive, dye-based, microfluorometric assays read on the FLIPR Tetra plate reader platform (Molecular Devices, CA, USA). Cells were plated in 384-well black, clear-bottomed Greiner poly-D-lysine coated plates at a density of ~25 K cells/well and incubated at 29°C for 48 h. Prior to assay, media contents were removed and cells incubated in assay buffer containing 5μM final Fluo-4 dye for 90 min. […] Test compounds were solubilized in DMSO and serially diluted in NUNC 384-well plates prior to addition of assay buffer (5.3 mM KCl + 140 mM NaCl + 20 mM Hepes + 25 mM CaCl2 + 1 mM MgCl2 + 10 μM atropine final concentration). Compounds diluted in assay buffer were added to the assay plate by the FLIPR and read for approximately 2 min. […] Offline transformation of concentration response data was done using a 4 parameter logistic fit using a Bristol-Myers Squibb proprietary informatics software suite.
For data set [5], the target named is Rat Brain α7 nAChR (Rattus norvegicus, UniProt Q05941). Put plainly: [3H]-A-585539 filtration binding.
In data set [6] the target is T1, HEK293/Human 5-HT3A (Homo sapiens, UniProt P46098).
T1 construct: expressed in transfected cells; host or cells: HEK293 (made by Bristol-Myers Squibb)
T1 sequence (P46098 24-478): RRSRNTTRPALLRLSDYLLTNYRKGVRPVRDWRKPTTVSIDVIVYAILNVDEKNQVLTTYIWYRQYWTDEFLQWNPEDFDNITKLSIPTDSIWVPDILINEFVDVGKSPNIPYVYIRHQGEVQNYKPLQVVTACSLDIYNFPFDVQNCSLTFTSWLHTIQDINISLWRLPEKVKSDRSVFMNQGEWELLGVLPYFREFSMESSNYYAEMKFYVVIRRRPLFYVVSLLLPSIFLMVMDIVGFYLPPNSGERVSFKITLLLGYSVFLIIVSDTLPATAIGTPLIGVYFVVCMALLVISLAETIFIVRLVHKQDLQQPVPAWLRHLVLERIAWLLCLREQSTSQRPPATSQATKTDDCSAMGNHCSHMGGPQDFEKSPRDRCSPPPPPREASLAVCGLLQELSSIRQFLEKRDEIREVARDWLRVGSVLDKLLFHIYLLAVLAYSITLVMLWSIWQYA
Nature of the data set: Ca2+ flux (FLIPR) 5-HT3A antagonist assay. Format: cell-based. The protocol:
Functional activity was examined using Ca^2+-sensitive, dye-based, microfluorometric assays read on the FLIPR Tetra plate reader platform (Molecular Devices, CA, USA). Cells were plated in 384-well black, clear-bottomed Greiner poly-D-lysine coated plates at a density of ~25 K cells/well and incubated at 29°C for 48 h. Prior to assay, media contents were removed and cells incubated in assay buffer containing 5μM final Fluo-4 dye for 90 min. For nAChR assays, the dye-loading buffer was HBSS (#14175 Life Technologies) supplemented with 20 mM HEPES, 0.5 mM CaCl2, 1 mM MgCl2 and 10 μM atropine (final concentration). Test compounds were solubilized in DMSO and serially diluted in NUNC 384-well plates prior to addition of assay buffer (5.3 mM KCl + 140 mM NaCl + 20 mM Hepes + 25 mM CaCl2 + 1 mM MgCl2 + 10 μM atropine final concentration). Compounds diluted in assay buffer were added to the assay plate by the FLIPR and read for approximately 2 min. […] For 5-HT3A antagonist studies, the dye loading and compound diluent buffer was HBSS (#14025 Life Technologies) supplemented with 20 mM HEPES (final concentration) and the concentration of 5-HT used in the assay was 2 μM. Offline transformation of concentration response data was done using a 4 parameter logistic fit using a Bristol-Myers Squibb proprietary informatics software suite.

The target of data set [7] is T2, α7 nAChR (Mus musculus, UniProt P49582).
T2 construct: One forebrain hemisphere from each animal was thawed and homogenized in assay buffer; from tissue; host or cells: forebrain homogenate of dosed male C57Bl/6 mice
Nature of the data set: Ex vivo α7 nAChR occupancy ([3H]-A-585539). Format: in vivo. To be noted: mouse, sc, mice.
Description: Occupancy determinations were made either on completion of behavioral testing or in satellite groups of animals dosed in parallel with behavioral testing. At specified time points after dosing, the forebrain (for occupancy), the remaining hindbrain (for brain drug exposure) and plasma were collected, frozen in chilled isopentane and stored at -80°C until assayed. […] Homogenized tissue aliquots were frozen immediately and stored at -80°C. […] The filters were washed with ice-cold assay buffer, punched into a clear plate and 200 μl scintillation fluid added per well. Bound radioactivity was measured using a Wallac Microbeta liquid scintillation counter. Specific binding was calculated by subtracting the value of the non-specific binding from that of the total binding in each sample. The percent occupancy was calculated as [1 –(specific binding in drug treated mice/specific binding in vehicle treated mice)] x 100.

Data set [8] deals with T3, HEK293/rat α7 nAChR cells (Rattus norvegicus, UniProt Q05941).
T3 construct: expressed in transfected cells
Put plainly: Whole cell voltage clamp electrophysiology. Format: cell-based. The conditions noted are these: n = 6.
Description: Whole-cell voltage clamp studies were conducted on HEK293/rat α7 or HEK293/human α7 nAChR cells. […] Atropine (1 μM) was included in the bathing solution. […] Cells were voltage clamped at a holding potential of -90 mV. Using the Dynaflow microfluidic perfusion system (Cellectricon; flow 26 μl/min) responses to a 300 ms application of ACh or α7 nAChR agonists were measured. Currents were filtered at 2 kHz and sampled at 10 kHz using an EPC-9 amplifier and HEKA Pulse/Patchmaster software. […] The peak current amplitude and net charge crossing the membrane (i.e. the area under the current response curve) induced by agonist application were measured using Clampfit (pClamp Suite) and normalized to the maximal response induced by ACh (3 mM ACh for peak current amplitude and 300 μM ACh for net charge).

Where [9] appears, read: NS-6740 (10 mg/kg sc) 10 min prior to BMS-933043 (0.3 mg/kg sc).

The values that follow come from paper PMC4965148 (PLoS ONE, 2016).

Several values for one entry are separate records, joined by “and”; a condition that tells them apart may be missing. Identical values can stand only once. Like-named read-outs stand apart in the source and are kept apart here.

Chain of Rat Brain α7 nAChR (Q05941 23-502): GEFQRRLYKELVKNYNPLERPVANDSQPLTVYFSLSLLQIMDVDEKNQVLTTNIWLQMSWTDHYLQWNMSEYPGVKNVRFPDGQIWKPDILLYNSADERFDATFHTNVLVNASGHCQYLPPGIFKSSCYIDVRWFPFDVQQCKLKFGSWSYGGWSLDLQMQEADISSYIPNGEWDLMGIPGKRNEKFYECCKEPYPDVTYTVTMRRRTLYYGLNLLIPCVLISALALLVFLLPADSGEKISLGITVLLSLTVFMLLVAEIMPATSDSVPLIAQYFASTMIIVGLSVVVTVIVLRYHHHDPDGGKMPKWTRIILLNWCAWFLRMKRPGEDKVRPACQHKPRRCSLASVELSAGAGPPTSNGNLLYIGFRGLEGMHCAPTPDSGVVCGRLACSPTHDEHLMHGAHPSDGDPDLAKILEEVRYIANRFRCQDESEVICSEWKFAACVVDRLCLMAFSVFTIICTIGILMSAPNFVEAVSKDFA
T3 sequence (Q05941 23-502): as above
T2 sequence (P49582 23-502): as the sequence (Q05941 23-502) above, with A402T counted along it
Chain of HEK293/Human α7 nAChR (P36544 23-502): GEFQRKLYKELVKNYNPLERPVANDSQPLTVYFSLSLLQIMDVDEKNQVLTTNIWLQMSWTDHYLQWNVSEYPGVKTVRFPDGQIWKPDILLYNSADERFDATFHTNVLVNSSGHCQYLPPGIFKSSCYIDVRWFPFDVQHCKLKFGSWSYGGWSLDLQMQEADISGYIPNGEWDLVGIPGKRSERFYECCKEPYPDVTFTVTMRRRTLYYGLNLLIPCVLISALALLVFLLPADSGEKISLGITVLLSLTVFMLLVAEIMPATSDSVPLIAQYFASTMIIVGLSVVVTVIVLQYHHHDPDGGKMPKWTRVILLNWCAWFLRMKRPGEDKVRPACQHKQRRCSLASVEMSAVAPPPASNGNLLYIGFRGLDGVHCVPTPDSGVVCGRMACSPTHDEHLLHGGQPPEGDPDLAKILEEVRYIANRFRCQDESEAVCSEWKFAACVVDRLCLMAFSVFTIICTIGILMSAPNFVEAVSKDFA
Chain of HEK293/Human α7 nAChR (Q7Z5B4 29-369 partner): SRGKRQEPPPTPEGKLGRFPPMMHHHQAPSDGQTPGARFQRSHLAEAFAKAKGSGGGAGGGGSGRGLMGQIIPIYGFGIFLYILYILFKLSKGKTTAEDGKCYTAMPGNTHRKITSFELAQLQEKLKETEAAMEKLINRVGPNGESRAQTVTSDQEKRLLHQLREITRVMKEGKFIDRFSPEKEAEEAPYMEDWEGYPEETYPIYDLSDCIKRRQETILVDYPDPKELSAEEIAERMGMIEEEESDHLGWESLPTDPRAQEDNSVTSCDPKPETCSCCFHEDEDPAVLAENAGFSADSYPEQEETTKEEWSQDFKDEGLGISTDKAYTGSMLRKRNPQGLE

In the case of `CCN1C[C@]2(COC(=O)c3ccccc3N3C(=O)C[C@H](C)C3=O)CC[C@H](OC)[C@@]34[C@@H]5C[C@H]6[C@H](OC)[C@@H]5[C@](O)(C[C@@H]6OC)[C@@](O)([C@@H](OC)[C@H]23)[C@@H]14` [MLA, methyllycaconitine], in data set [1], the brain/plasma is 0.06–0.09.

One may read the Ki as the dissociation constant of the complex between target and ligand, obtained from inhibition or displacement. A word on the IC50: it is the concentration at which inhibition is half-maximal. For the compound `O=C(c1ccc(-c2cccc(C(F)(F)F)c2)o1)N1CCN2CCC1CC2` [NS-6740, 4-[[5-[3-(trifluoromethyl)phenyl]-2-furanyl]carbonyl]-1,4-diazabicyclo[3.2.2]nonane], in data set [2] (3 or 10 mg/kg sc), the “24 h recognition memory after NS-6740 alone” value is listed as “did not show improved 24 h recognition memory”. Further, the “effect of pretreatment on BMS-933043 (0.3 mg/kg, sc) improved discrimination index” value in data set [2] (NS-6740 10 mg/kg sc) is reported as “abolished the improved discrimination index”. The “% Discrimination Index (DI) Testing (day 3) Mean ± SEM” value is 3.83 ± 4.25% in data set [2] (setting [9]) and -1.02 ± 4.40% in data set [2] (NS-6740 (10 mg/kg sc)/Vehicle). The “% Discrimination Index (DI) Training (day 2) Mean ± SEM” value in data set [2] (setting [9]) is recorded as -4.82 ± 7.09%; in data set [2] (NS-6740 (10 mg/kg sc)/Vehicle), 6.43 ± 5.54%. Also, the “Brain Mean ± SD” value is 316 ± 43 nM in data set [3] (NS-6740 0.3 mg/kg sc, mice); 1,125 ± 66 nM in data set [3] (NS-6740 1 mg/kg sc, mice); 3,998 ± 273 nM in data set [3] (NS-6740 3 mg/kg sc, mice); 17,725 ± 1,928 nM in data set [3] (NS-6740 10 mg/kg sc, mice). Besides, the “Plasma Mean ± SD” value in data set [3] (NS-6740 0.3 mg/kg sc, mice) is reported as 37 ± 2 nM; in data set [3] (NS-6740 1 mg/kg sc, mice), 130 ± 7 nM; in data set [3] (NS-6740 3 mg/kg sc, mice) it was 544 ± 214 nM; in data set [3] (NS-6740 10 mg/kg sc, mice) it was 2,083 ± 426 nM. Moreover, the Kp in data set [3] (NS-6740 0.3 mg/kg sc, mice, read-out: Brain/Plasma Ratio) was 8.54; in data set [3] (NS-6740 1 mg/kg sc, mice, read-out: Brain/Plasma Ratio) it was 8.65; in data set [3] (NS-6740 3 mg/kg sc, mice, read-out: Brain/Plasma Ratio), 7.35; in data set [3] (NS-6740 10 mg/kg sc, mice, read-out: Brain/Plasma Ratio) it was 8.51; in data set [3] (NS-6740, mice sc, read-out: average brain/plasma ratio) it was > 8. For the same compound, the “α7 nAChR agonist activity” value in data set [4] is on record as “no α7 nAChR agonist activity”. The Ki was 0.00285 ± 0.00044 µM in data set [5] (displacement of [3H]-A-585539, read-out: Rat Brain α7 nAChR Mean ± SD Ki); 0.00245 µM and 0.00278 µM and 0.00333 µM in data set [5] (individual determinations, read-out: Rat Brain α7 nAChR Ki (individual)). Further, the IC50 is 6.21 µM and 5.69 µM and 5.32 µM and 5.91 µM and 2.39 µM and 3.11 µM and 4.7 µM and 5.68 µM and 4.43 µM in data set [6] (FLIPR, individual determinations, read-out: Human 5-HT3A IC50 values (individual)); 4.83 µM in data set [6] (HEK293/Human 5-HT3A Mean ± SD IC50, Ca2+ flux (FLIPR), antagonism of 2 μM 5-HT); 0.255 µM in data set [8] (IC50 for inhibition of BMS-933043 (10 μM) net charge crossing the membrane); 0.283 ± 0.033 µM in data set [8] (IC50 for inhibition of BMS-933043 (10 μM) peak current response). Besides, in data set [7] (read-out: ex vivo α7 nAChR occupancy, NS-6740 3 mg/kg sc), the receptor occupancy at 3 mg/kg was 89%. Moreover, the receptor occupancy at 10 mg/kg in data set [7] (read-out: ex vivo α7 nAChR occupancy, NS-6740 10 mg/kg sc) stood at 98%.
